The structures appear in SMILES notation.

Assay [1] deals with T1, human HIF-PHD2 (Homo sapiens, UniProt Q9GZT9).
T1 construct: purchased CrystalGenomics Ltd
Description: HIF-PHD inhibition assay (fluorescence polarization), human HIF-PHD2. Format: biochemical. Conditions: 2-oxoglutaric acid 3.33 μmol/L. In outline:
(§1)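 Fluorescence polarization was read before and after adding enzyme, and the difference (mP value) taken as enzyme activity. The tracer carried a FAM (5′-fluoresceinamide) tag linked via aminocaproic acid.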
In general terms: Fluorescence polarisation rises when a labelled molecule tumbles more slowly, as on binding a larger partner.

The target of assay [2] is T2, human HIF-PHD3 (Homo sapiens, UniProt Q9H6Z9).
T2 construct: purchased CrystalGenomics Ltd
T2 sequence (Q9H6Z9 whole entry): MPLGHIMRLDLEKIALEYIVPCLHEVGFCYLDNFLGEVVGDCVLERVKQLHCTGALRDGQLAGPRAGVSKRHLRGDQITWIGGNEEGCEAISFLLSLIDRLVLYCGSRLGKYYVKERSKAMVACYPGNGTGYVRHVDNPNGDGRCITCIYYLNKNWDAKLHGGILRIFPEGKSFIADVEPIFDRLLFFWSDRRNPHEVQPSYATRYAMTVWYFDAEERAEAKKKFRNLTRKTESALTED
Description: HIF-PHD inhibition assay (fluorescence polarization), human HIF-PHD3. Format: biochemical. The following applies: 2-oxoglutaric acid 166 μmol/L. In outline: as §1

T1 sequence (Q9GZT9 2-426 limits assumed): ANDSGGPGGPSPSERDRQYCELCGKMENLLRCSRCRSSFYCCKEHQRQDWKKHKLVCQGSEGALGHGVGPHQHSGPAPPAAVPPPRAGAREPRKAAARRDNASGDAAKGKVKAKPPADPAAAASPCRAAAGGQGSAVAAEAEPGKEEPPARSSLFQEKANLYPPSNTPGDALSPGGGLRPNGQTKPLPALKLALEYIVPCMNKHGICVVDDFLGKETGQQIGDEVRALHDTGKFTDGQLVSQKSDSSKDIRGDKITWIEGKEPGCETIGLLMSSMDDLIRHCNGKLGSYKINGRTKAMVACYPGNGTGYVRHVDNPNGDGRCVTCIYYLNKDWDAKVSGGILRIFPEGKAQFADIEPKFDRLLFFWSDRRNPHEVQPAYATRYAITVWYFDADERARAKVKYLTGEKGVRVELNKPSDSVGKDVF

By IC50 is commonly meant the concentration at which inhibition is half-maximal. Take `Cc1ccc([C@@H](C)n2ncc3nc(-n4cc(C(=O)O)cn4)nc(O)c32)cc1C(F)(F)F` [Example 277]: the 50% inhibitory concentration (IC50) worked out at 61 nM in assay [1] and 610 nM in assay [2].

With `O=C(O)c1cnn(-c2nc(O)c3c(cnn3Cc3ccc(-c4cccc(Cl)c4Cl)cc3)n2)c1` [Example 75], the values for the IC50 in assay [1] and in assay [2] were 20 nM and 120 nM, respectively.

Turning to `CC1(C)CC(n2ncc3nc(-n4cc(C(=O)O)cn4)nc(O)c32)CC(C)(C)C1` [Example 387], the IC50 in assay [1] turned out to be 30 nM; in assay [2], 780 nM.

`C[C@H](c1ccc(C(F)(F)F)c(F)c1)n1ncc2nc(-n3cc(C(=O)O)cn3)nc(O)c21` [Example 280]: the IC50 in assay [1] stood at 62 nM; in assay [2], 850 nM.

As for `Cc1cc(C(C)n2ncc3nc(-n4cc(C(=O)O)cn4)nc(O)c32)ccc1F` (stereo not drawn) [Example 301], the figures for the IC50 in assay [1] and in assay [2] were 54 nM and 710 nM, respectively.

Turning to `Cc1cc(F)cc(C(C)n2ncc3nc(-n4cc(C(=O)O)cn4)nc(O)c32)c1` (single isomer, unassigned) [Example 300], the IC50 in assay [1] was 59 nM; in assay [2], 490 nM.

Turning to `CC(C)C(c1cc(F)cc(F)c1)n1ncc2nc(-n3cc(C(=O)O)cn3)nc(O)c21` (single isomer, unassigned) [Example 361], the IC50 came to 61 nM in assay [1] and 760 nM in assay [2].

On to `Cc1nn(C2CCCCC2)c2c(O)nc(-n3cc(C(=O)O)cn3)nc12` [Example 227], for which the IC50 in assay [1] was 130 nM; in assay [2] it was 3800 nM.

As to `C[C@H](C1CCCCC1)n1nc(F)c2nc(-n3cc(C(=O)O)cn3)nc(O)c21` [Example 469], the results for the IC50 in assay [1] and in assay [2] were 76 nM and 1200 nM, respectively.

Consider `O=C(O)c1cnn(-c2nc(O)c3c(cnn3CC3CCC(F)(F)CC3)n2)c1` [Example 143], for which the results for the 50% inhibitory concentration (IC50) in assay [1] and in assay [2] were 15 nM and 1200 nM, respectively.

On to `O=C(O)c1cnn(-c2nc(O)c3c(cnn3Cc3ccc(-c4ccccc4C4CC4)cc3)n2)c1` [Example 60], for which the IC50 in assay [1] was 28 nM; in assay [2], 77 nM.

For the compound `O=C(O)c1cnn(-c2nc(O)c3c(cnn3Cc3ccc(C4CC4)cc3)n2)c1` [Example 321], the values for the IC50 in assay [1] and in assay [2] were 11 nM and 190 nM, respectively.

Consider `CCC(c1ccc(C)c(Cl)c1)n1ncc2nc(-n3cc(C(=O)O)cn3)nc(O)c21` (single isomer, unassigned) [Example 349], for which the IC50 in assay [1] was 67 nM; in assay [2], 390 nM.

Turning to `O=C(O)c1cnn(-c2nc(O)c3c(cnn3C(c3cc(F)cc(F)c3)C3CC3)n2)c1` (stereo not drawn) [Example 372], the IC50 in assay [1] was found to be 45 nM; in assay [2] it was 720 nM.

As for `Cc1cc(-c2ccccc2F)ccc1Cn1ncc2nc(-n3cc(C(=O)O)cn3)nc(O)c21` [Example 88], the results for the IC50 in assay [1] and in assay [2] were 8.6 nM and 44 nM, respectively.

Turning to `Cc1nn([C@H]2CC[C@H](C)CC2)c2c(O)nc(-n3cc(C(=O)O)cn3)nc12` [Example 483], the half-maximal inhibitory concentration (IC50) is 110 nM in assay [1] and 1200 nM in assay [2].

As to `Cc1nn([C@@H](C)c2ccc(F)cc2Cl)c2c(O)nc(-n3cc(C(=O)O)cn3)nc12` [Example 452], the 50% inhibitory concentration (IC50) stood at 110 nM in assay [1] and 1600 nM in assay [2].

In the case of `Cc1cc(C(C)n2ncc3nc(-n4cc(C(=O)O)cn4)nc(O)c32)ccc1Cl` (single isomer, unassigned) [Example 294], the results for the IC50 in assay [1] and in assay [2] were 22 nM and 470 nM, respectively.

Take `C[C@@H](c1ccc(F)cc1F)n1ncc2nc(-n3cc(C(=O)O)cn3)nc(O)c21` [Example 255]: the results for the IC50 in assay [1] and in assay [2] were 64 nM and 540 nM, respectively.

As to `CC[C@H]1CC[C@H](Cn2nc(F)c3nc(-n4cc(C(=O)O)cn4)nc(O)c32)CC1` [Example 219], the IC50 is 11 nM in assay [1] and 1400 nM in assay [2].

For the compound `Cc1nn(CC(C)(C)C)c2c(O)nc(-n3cc(C(=O)O)cn3)nc12` [Example 500], the figures for the half-maximal inhibitory concentration (IC50) in assay [1] and in assay [2] were above 300 nM and 750 nM, respectively.

In the case of `Cc1ccc([C@H](C)n2nc(F)c3nc(-n4cc(C(=O)O)cn4)nc(O)c32)cc1C` [Example 441], the concentration for half-maximal inhibition (IC50) in assay [1] stood at 60 nM; in assay [2], 430 nM.

`CCC(c1cc(F)cc(F)c1)n1ncc2nc(-n3cc(C(=O)O)cn3)nc(O)c21` (stereo not drawn) [Example 332]: the concentration for half-maximal inhibition (IC50) in assay [1] was determined as 45 nM; in assay [2], 550 nM.

On to `C[C@@H](c1ccc(Cl)c(F)c1)n1ncc2nc(-n3cc(C(=O)O)cn3)nc(O)c21` [Example 271], for which the values for the IC50 in assay [1] and in assay [2] were 12 nM and 260 nM, respectively.

With `CC(C)(C)Cn1ncc2nc(-n3cc(C(=O)O)cn3)nc(O)c21` [Example 491], the IC50 in assay [1] came out at 99 nM; in assay [2], 630 nM.

`CCC1CCCC(n2ncc3nc(-n4cc(C(=O)O)cn4)nc(O)c32)C1` (single isomer, unassigned) [Example 416]: the 50% inhibitory concentration (IC50) in assay [1] was found to be 18 nM; in assay [2], 530 nM.

Regarding `CC(C)CC(CC(C)C)n1ncc2nc(-n3cc(C(=O)O)cn3)nc(O)c21` [Example 490], the figures for the IC50 in assay [1] and in assay [2] were 94 nM and 1100 nM, respectively.

Turning to `O=C(O)c1cnn(-c2nc(O)c3c(cnn3C(c3ccc(Cl)cc3)C3CC3)n2)c1` (stereo not drawn) [Example 364], the concentration for half-maximal inhibition (IC50) came out at 39 nM in assay [1] and 780 nM in assay [2].

With `C[C@H](C1CCCCC1)n1ncc2nc(-n3cc(C(=O)O)cn3)nc(O)c21` [Example 145], the 50% inhibitory concentration (IC50) came to 30 nM in assay [1] and 1700 nM in assay [2].

As for `CC(C)(C)[C@H]1CC[C@@H](n2ncc3nc(-n4cc(C(=O)O)cn4)nc(O)c32)CC1` [Example 391], the IC50 was 72 nM in assay [1] and 1100 nM in assay [2].

`C[C@@H](c1ccc(C(F)(F)F)cc1)n1nc(C2CC2)c2nc(-n3cc(C(=O)O)cn3)nc(O)c21` [Example 456]: the concentration for half-maximal inhibition (IC50) in assay [1] came out at 53 nM; in assay [2], 430 nM.

Take `CCC(c1ccc(Cl)cc1)n1ncc2nc(-n3cc(C(=O)O)cn3)nc(O)c21` (stereo not drawn) [Example 322]: the IC50 in assay [1] came to 48 nM; in assay [2] it was 180 nM.

For the compound `O=C(O)c1cnn(-c2nc(O)c3c(n2)c(F)nn3CC2CCCCCC2)c1` [Example 464], the IC50 in assay [1] amounted to 17 nM; in assay [2] it was 440 nM.

Turning to `O=C(O)c1cnn(-c2nc(O)c3c(cnn3C3CCN(c4ccc(C(F)(F)F)cc4)CC3)n2)c1` [Example 436], the IC50 in assay [1] stood at 10 nM; in assay [2], 330 nM.

As for `O=C(O)c1cnn(-c2nc(O)c3c(cnn3C(c3ccc(F)c(Cl)c3)C3CC3)n2)c1` (single isomer, unassigned) [Example 371], the concentration for half-maximal inhibition (IC50) came out at 41 nM in assay [1] and 400 nM in assay [2].

`Cc1cc(C(C2CC2)n2ncc3nc(-n4cc(C(=O)O)cn4)nc(O)c32)ccc1F` (single isomer, unassigned) [Example 377]: the half-inhibitory concentration (IC50) was found to be 66 nM in assay [1] and 340 nM in assay [2].

`Cc1ccc2cc(Cn3ncc4nc(-n5cc(C(=O)O)cn5)nc(O)c43)ccc2c1` [Example 33]: the IC50 in assay [1] stood at 10 nM; in assay [2], 200 nM.

`Cc1ccc([C@H](C)n2ncc3nc(-n4cc(C(=O)O)cn4)nc(O)c32)cc1C` [Example 259]: the results for the IC50 in assay [1] and in assay [2] were 44 nM and 690 nM, respectively.

In the case of `CC(C)C(c1cc(F)cc(F)c1)n1ncc2nc(-n3cc(C(=O)O)cn3)nc(O)c21` (stereo not drawn) [Example 360], the IC50 in assay [1] came to 64 nM; in assay [2], 770 nM.

On to `C[C@@H](c1ccc2c(c1)CCCC2)n1ncc2nc(-n3cc(C(=O)O)cn3)nc(O)c21` [Example 290], for which the IC50 in assay [1] is 38 nM; in assay [2], 400 nM.

As to `C[C@@H](c1cc(C(F)(F)F)cc(C(F)(F)F)c1)n1ncc2nc(-n3cc(C(=O)O)cn3)nc(O)c21` [Example 272], the IC50 in assay [1] amounted to 79 nM; in assay [2], 980 nM.

In the case of `CC(C)c1ccccc1-c1ccc(Cn2ncc3nc(-n4cc(C(=O)O)cn4)nc(O)c32)cc1` [Example 59], the 50% inhibitory concentration (IC50) in assay [1] amounted to 29 nM; in assay [2], 95 nM.

`Cn1ncc2nc(-n3cc(C(=O)O)cn3)nc(O)c21` [Example 485]: the IC50 in assay [1] is 140 nM; in assay [2], above 3000 nM.

`CCC1CCCC(n2ncc3nc(-n4cc(C(=O)O)cn4)nc(O)c32)C1` (stereo not drawn) [Example 413]: the IC50 in assay [1] worked out at 42 nM; in assay [2] it was 680 nM.

For `CC1CC(n2ncc3nc(-n4cc(C(=O)O)cn4)nc(O)c32)CC(C)(C)C1` (single isomer, unassigned) [Example 410], the figures for the IC50 in assay [1] and in assay [2] were 42 nM and 430 nM, respectively.

Consider `CC(C)C(C(C)C)n1ncc2nc(-n3cc(C(=O)O)cn3)nc(O)c21` [Example 489], for which the half-inhibitory concentration (IC50) in assay [1] stood at 150 nM; in assay [2] it was 900 nM.

`CC(C)C(c1cccc(C(F)(F)F)c1)n1ncc2nc(-n3cc(C(=O)O)cn3)nc(O)c21` (stereo not drawn) [Example 362]: the IC50 in assay [1] amounted to 100 nM; in assay [2] it was 1500 nM.

Consider `C[C@H]1CC[C@H](n2nc(F)c3nc(-n4cc(C(=O)O)cn4)nc(O)c32)CC1` [Example 479], for which the IC50 in assay [1] worked out at 42 nM; in assay [2], 260 nM.

On to `O=C(O)c1cnn(-c2nc(O)c3c(cnn3Cc3ccc(-c4ccc(Cl)cc4F)cc3)n2)c1` [Example 74], for which the half-maximal inhibitory concentration (IC50) came out at 20 nM in assay [1] and 72 nM in assay [2].

As to `CCCC[C@H](C)n1ncc2nc(-n3cc(C(=O)O)cn3)nc(O)c21` [Example 497], the IC50 in assay [1] came to 52 nM; in assay [2], 890 nM.

As to `CCC(c1ccc(F)cc1)n1ncc2nc(-n3cc(C(=O)O)cn3)nc(O)c21` (stereo not drawn) [Example 324], the IC50 in assay [1] was found to be 95 nM; in assay [2] it was 650 nM.

Turning to `Cc1ccc(C(C2CC2)n2ncc3nc(-n4cc(C(=O)O)cn4)nc(O)c32)cc1` (stereo not drawn) [Example 368], the results for the concentration for half-maximal inhibition (IC50) in assay [1] and in assay [2] were 72 nM and 410 nM, respectively.

On to `CC1CCCC(n2ncc3nc(-n4cc(C(=O)O)cn4)nc(O)c32)C1` (stereo not drawn) [Example 400], for which the concentration for half-maximal inhibition (IC50) in assay [1] came to 23 nM; in assay [2] it was 600 nM.

Regarding `C[C@H]1CC[C@@H](n2ncc3nc(-n4cc(C(=O)O)cn4)nc(O)c32)CC1` [Example 385], the IC50 worked out at 130 nM in assay [1] and 380 nM in assay [2].

The record behind these values is patent US20150239889A1, “PYRAZOLOPYRIMIDINE COMPOUND” (MITSUBISHI TANABE PHARMA CORPORATION, priority 2012, published 2015).
